Key:
[1] = target: Mitogen-activated protein kinase 14 (Homo sapiens, UniProt Q16539); design: species or system Escherichia coli;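 note: inhibition of p38alpha enzyme activity in a biochemical kinase assay, with myelin basic protein serving as substrate; in other assays of this panel Not Active means under 50% inhibition at 10 µM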
[2] = target: T1, C-X-C chemokine receptor type 1 (Homo sapiens, UniProt P25024); note: in other assays of this panel Not Active means under 50% inhibition at 10 µM
T1 sequence (P25024 whole entry): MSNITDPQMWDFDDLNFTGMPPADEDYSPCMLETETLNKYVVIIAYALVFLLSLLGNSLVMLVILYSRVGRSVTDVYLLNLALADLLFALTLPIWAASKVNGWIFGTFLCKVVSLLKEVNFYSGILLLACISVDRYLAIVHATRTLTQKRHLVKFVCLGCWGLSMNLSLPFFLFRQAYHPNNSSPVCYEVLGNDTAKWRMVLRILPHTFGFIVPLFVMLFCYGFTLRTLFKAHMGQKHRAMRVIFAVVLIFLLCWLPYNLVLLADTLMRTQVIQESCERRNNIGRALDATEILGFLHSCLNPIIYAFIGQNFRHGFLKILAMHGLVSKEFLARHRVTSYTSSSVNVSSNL

Leukotriene C4 synthase = target: T2, Leukotriene C4 synthase (Cavia porcellus, UniProt A6XA80); format: tissue-based, Lung;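 note: enzyme inhibition assay of leukotriene C4 synthase, using LTA4 as the substrate; in other assays of this panel Not Active means under 50% inhibition at 10 µM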
T2 sequence (A6XA80 whole entry): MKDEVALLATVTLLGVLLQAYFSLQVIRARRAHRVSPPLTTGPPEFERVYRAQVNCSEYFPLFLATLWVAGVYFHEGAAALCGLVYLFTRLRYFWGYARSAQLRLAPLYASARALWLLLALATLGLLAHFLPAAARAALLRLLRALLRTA

[3] = target: Mitogen-activated protein kinase 3 (Homo sapiens, UniProt P27361); test: DRUGMATRIX: Protein Serine/Threonine Kinase, ERK1 enzyme inhibition (substrate: Myelin Basic Protein); design: species or system Escherichia coli; details: Not Active = under 50% inhibition at 10 µM
Endothelin-1 receptor = target: T3, Endothelin-1 receptor (Homo sapiens, UniProt P25101); format: cell membranes, Membrane; details: cho-k1; note: in other assays of this panel Not Active means under 50% inhibition at 10 µM
T3 sequence (P25101 whole entry): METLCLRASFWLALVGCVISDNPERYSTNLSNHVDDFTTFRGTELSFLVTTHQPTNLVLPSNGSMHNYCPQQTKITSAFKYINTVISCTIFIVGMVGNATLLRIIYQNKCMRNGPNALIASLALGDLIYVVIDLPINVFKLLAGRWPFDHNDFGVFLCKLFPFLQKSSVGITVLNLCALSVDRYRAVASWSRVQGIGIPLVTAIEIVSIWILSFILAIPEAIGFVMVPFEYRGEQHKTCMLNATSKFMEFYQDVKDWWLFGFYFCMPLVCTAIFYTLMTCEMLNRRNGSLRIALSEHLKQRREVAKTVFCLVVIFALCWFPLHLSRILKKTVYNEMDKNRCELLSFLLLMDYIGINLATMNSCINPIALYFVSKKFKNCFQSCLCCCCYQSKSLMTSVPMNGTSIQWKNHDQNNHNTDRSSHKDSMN

[4] = target: T4, Receptor-type tyrosine-protein phosphatase C (Homo sapiens, UniProt P08575); design: species or system Escherichia coli
T4 sequence (P08575 whole entry): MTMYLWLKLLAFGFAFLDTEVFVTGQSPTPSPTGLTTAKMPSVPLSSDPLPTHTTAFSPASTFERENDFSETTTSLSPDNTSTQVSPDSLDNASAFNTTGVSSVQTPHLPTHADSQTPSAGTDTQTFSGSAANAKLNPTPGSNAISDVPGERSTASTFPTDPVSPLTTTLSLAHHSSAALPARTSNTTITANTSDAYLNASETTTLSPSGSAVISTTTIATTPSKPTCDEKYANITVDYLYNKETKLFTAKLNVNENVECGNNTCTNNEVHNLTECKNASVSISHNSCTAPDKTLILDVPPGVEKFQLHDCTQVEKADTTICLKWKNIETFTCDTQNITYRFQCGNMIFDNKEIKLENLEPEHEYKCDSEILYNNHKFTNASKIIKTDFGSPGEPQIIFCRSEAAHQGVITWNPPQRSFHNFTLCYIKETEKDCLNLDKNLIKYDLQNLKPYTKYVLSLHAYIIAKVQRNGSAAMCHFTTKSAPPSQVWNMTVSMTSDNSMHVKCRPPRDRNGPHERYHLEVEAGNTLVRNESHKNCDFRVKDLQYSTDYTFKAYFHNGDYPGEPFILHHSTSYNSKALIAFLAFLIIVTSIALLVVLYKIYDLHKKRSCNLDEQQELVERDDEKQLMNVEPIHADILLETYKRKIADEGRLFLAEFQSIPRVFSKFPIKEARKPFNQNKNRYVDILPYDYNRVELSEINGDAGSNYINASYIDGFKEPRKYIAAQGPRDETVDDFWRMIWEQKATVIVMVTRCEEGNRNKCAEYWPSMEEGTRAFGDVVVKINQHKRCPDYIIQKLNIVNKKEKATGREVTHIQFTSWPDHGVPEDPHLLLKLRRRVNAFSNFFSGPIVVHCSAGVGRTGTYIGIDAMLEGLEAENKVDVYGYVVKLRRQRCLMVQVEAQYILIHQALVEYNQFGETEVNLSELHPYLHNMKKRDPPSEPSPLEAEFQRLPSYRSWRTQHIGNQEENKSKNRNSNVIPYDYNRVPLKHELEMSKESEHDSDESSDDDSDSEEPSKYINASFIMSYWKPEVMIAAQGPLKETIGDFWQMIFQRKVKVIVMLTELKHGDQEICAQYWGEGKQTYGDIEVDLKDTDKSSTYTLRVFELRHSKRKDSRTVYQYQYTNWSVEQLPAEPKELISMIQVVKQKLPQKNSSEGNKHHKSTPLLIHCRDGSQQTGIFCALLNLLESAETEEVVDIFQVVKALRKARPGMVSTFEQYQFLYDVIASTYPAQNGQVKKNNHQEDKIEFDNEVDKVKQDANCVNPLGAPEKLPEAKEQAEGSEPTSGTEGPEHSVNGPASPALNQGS

Calcitonin receptor = target: T5, Calcitonin receptor (Homo sapiens, UniProt P30988); format: cell membranes, Membrane; details: t47d; note: in other assays of this panel Not Active means under 50% inhibition at 10 µM
T5 sequence (P30988 whole entry): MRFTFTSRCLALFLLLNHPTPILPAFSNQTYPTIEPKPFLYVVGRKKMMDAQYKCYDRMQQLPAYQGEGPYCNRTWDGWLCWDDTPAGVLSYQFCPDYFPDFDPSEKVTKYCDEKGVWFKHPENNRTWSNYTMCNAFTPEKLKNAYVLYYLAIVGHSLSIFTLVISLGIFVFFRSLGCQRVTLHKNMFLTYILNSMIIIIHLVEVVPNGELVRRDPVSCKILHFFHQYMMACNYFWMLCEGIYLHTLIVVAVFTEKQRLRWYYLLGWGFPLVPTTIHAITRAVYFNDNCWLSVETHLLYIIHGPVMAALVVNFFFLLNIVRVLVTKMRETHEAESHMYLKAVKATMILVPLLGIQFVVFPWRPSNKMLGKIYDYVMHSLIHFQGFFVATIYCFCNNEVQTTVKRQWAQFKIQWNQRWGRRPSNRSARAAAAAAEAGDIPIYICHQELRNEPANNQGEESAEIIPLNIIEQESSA

Measured: IC50

Sequence of Mitogen-activated protein kinase 3 (P27361 whole entry): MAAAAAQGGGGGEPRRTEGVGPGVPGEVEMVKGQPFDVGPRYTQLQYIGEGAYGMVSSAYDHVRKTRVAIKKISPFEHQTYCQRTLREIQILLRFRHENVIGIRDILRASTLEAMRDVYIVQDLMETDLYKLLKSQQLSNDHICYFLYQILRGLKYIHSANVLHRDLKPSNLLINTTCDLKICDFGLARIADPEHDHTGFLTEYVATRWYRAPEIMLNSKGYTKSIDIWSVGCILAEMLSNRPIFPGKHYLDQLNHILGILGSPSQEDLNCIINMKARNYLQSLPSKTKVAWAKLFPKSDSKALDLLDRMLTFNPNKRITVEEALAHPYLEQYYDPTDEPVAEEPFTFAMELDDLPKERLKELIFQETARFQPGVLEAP
Sequence of Mitogen-activated protein kinase 14 (Q16539 whole entry): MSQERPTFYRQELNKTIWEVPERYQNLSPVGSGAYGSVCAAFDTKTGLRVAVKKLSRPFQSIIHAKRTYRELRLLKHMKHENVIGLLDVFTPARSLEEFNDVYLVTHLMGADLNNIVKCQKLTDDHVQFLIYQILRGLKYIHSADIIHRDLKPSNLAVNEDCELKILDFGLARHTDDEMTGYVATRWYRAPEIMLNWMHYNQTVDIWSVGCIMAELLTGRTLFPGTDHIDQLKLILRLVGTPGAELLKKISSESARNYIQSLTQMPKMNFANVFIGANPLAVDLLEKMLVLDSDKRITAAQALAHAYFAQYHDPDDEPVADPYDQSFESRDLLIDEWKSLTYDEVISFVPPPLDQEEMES

CCCCC(=O)N(Cc1ccc(-c2ccccc2-c2nnn[nH]2)cc1)[C@H](C(=O)O)C(C)C
Not Active: all assays above

O=C(O)COc1ccc(C(=O)c2cccs2)c(Cl)c1Cl
Not Active: all assays above

CN1[C@@H]2CC[C@H]1C[C@@H](OC(c1ccccc1)c1ccccc1)C2 [BENZTROPINE]
Not Active: all assays above

C[C@@](Cc1ccc(O)c(O)c1)(NN)C(=O)O.O [CARBIDOPA]
Not Active: all assays above

CN1CCN(C2=Nc3cc(Cl)ccc3Nc3ccccc32)CC1 [CLOZAPINE]
Not Active: all assays above

CC(C)NC[C@@H](O)COc1cccc2ccccc12 [DEXPROPRANOLOL]
Not Active: all assays above

CC(C)NC[C@H](O)COc1cccc2ccccc12 [LEVOPROPRANOLOL]
Not Active: all assays above

O=C(O)CCCCC1CCSS1 (stereo not drawn) [LIPOIC ACID, ALPHA]
Not Active: all assays above

CN(C)C(=O)C(CCN1CCC(O)(c2ccc(Cl)cc2)CC1)(c1ccccc1)c1ccccc1 [LOPERAMIDE]
Not Active: all assays above

Clc1ccc(COC(Cn2ccnc2)c2ccc(Cl)cc2Cl)c(Cl)c1 (stereo not given) [MICONAZOLE]
Not Active: all assays above

Oc1ccc2c3c1O[C@H]1[C@@H](O)CC[C@@]4(O)[C@@H](C2)N(CC2CCC2)CC[C@]314 [NALBUPHINE]
Not Active: all assays above

C[C@]12C=CC(=O)C=C1CC[C@@H]1[C@@H]2C(=O)C[C@@]2(C)[C@H]1CC[C@]2(O)C(=O)CO [PREDNISONE]
Not Active: all assays above

OCCOCCN1CCN(C2=Nc3ccccc3Sc3ccccc32)CC1 [QUETIAPINE]
Not Active: all assays above

COC(=O)[C@H]1[C@H]2C[C@@H]3c4[nH]c5cc(OC)ccc5c4CCN3C[C@H]2C[C@@H](OC(=O)c2cc(OC)c(OC)c(OC)c2)[C@@H]1OC [RESERPINE]
Not Active: all assays above

O=C(O)c1ccccc1O [SALICYLIC ACID]
Not Active: all assays above

C[S+]([O-])c1ccc(-c2nc(-c3ccncc3)c(-c3ccc(F)cc3)[nH]2)cc1 (stereo not given) [SB-203580]
not listed: [1] | [3]
Not Active: all other assays above

CC1CCC(NC(=O)N(CCCl)N=O)CC1 (stereo not given) [SEMUSTINE]
Not Active: all assays above

O=C1C[C@@H]2OCC=C3CN4CC[C@]56c7ccccc7N1[C@H]5[C@H]2[C@H]3C[C@H]46 [STRYCHNINE]
Not Active: all assays above

C[N+](C)(C)CCOC(=O)CCC(=O)OCC[N+](C)(C)C.[Cl-].[Cl-] [SUCCINYLCHOLINE CHLORIDE]
Not Active: all assays above

Nc1ccc(S(=O)(=O)NC(=O)c2ccccc2)cc1 [SULFABENZAMIDE]
Not Active: all assays above

CCCCCCCCNC(C)C(O)c1ccc(SC(C)C)cc1 (stereo not given) [SULOCTIDIL]
Not Active: all assays above

Reference: ChEMBL document CHEMBL1909046, “DrugMatrix in vitro pharmacology data”
